In this assay the test system is kdp c-di-AMP riboswitch transcript (5'-UTR of kdpFABC, run-off from -88 to +363 template) (RNA, riboswitch) AUAAAUCAUUCAUAAAAUUUCCAAAAAAACCUAAAAUCGCUGAGUUCCAGAAAUGGAGCGGGGGAACCAAUUUUGUGCAUCGUCACUUGGGGUGAAUCUUUCAGUUUUGAAAGUAGGGCUACUCUUUAGGCCCGAAUCCGACAGCUAACCUCGUAAGCGUUUAGAGAGGAGGUUUACUUUUUGUUGUUCAUUUUUUGAACACUGAGUAGAGCUCAGUGUUCUUUUUUAAUAUUUAAAUGGUAAAUUUUAACAAAAAAGAGGGGAUAGUUAUGUUAGAUGUUGUAAUGGUCGGGAUUUUUAUUUUAUUAGUUGCAUCGAUGGCAAGUCUUGCAAGUUGGUCAGAUAAAGUUGUGAAAGAAGGA
Description: in vitro transcription termination (E. coli RNA polymerase), gel. As to conditions: 150 mM KCl, 10 mM MgCl2; 40 mM Tris-HCl pH 7.5, 37 °C; c-di-AMP 0-5 µM; termination rises 27% to 63%; functional, no constant.

For `Nc1ncnc2c1ncn2[C@@H]1O[C@@H]2COP(=O)(O)O[C@H]3[C@@H](O)[C@H](n4cnc5c(N)ncnc54)O[C@@H]3COP(=O)(O)O[C@H]2[C@H]1O`, the binding result is reported as “yes”.

(Values after article PMC6488665 (2019).)
